Literature values, collected in patent US20260054267A1, “PRODUCTION OF ENCAPSULATED NANOPARTICLES AT COMMERCIAL SCALE” (ICEUTICA PTY LTD., priority 2009, published 2026).

Details: slowly absorbed by the body

Tmax: 4 to 5 h
SMILES: Cc1cnc(NC(=O)C2=C(O)c3ccccc3S(=O)(=O)N2C)s1 [Meloxicam]
